According to patent publication US10512641B2, “Chloroquine induction par-4 and treatment of cancer” (University of Kentucky Research Foundation, priority 2015, dated 2019):

Columns and labels:
Par-4 [1] = assay: Par-4 secretion in wild type or p53-null MEFs, Western blot; type: cell-based, mouse; details: CQ 25 μM, Arylquin-1, Nutlin-3a 10 μM, 24 h
Par-4 [2] = details: Burikhanov et al. (2014); cited from earlier work
Par-4 [3] = assay: ICC analysis of Par-4 localization in Rab8b coated vesicles; type: cell-based
Description: An immunocytochemical (ICC) analysis was performed to determine the localization of Par-4 in Rab8b coated vesicles.

Par-4 [4] = assay: BFA sensitivity of CQ-induced Par-4 in MEFs; type: cell-based, mouse; details: MEFs pre-treated with BFA 10 μg/ml 30 minutes, then CQ 50 μM 5 h
Description: (§4) The CM and lysates were examined by Western blot analysis with the indicated antibodies.

Par-4 [5] = assay: Par-4 secretion in conditioned medium of MEFs, Western blot; type: cell-based, mouse; details: wild type (p53+/+) MEFs; CQ 1-100 μM, 24 h
Text: (§1) The conditioned medium (CM), as well as the whole-cell lysates were subjected to Western blot analysis with the antibodies specific for Par-4, Collagen (Col1A1), albumin, or actin. Col1A1 served as a loading control for protein secretion, as it is generally unchanged in response to the treatments. The samples were also subjected to SDS/PAGE and Coomassie blue staining to determine albumin levels in serum from the CM as another loading control.

Par-4 [6] = assay: Par-4 secretion in conditioned medium of normal human cells, Western blot; type: cell-based; details: normal human PrSC, PrEC, HEL, HBEC; CQ 1-100 μM, 24 h
Text: as §1

Par-4 [7] = assay: Par-4 secretion in conditioned medium of prostate and lung cancer cell lines, Western blot; type: cell-based, human; details: prostate cancer cells LNCaP, C4-2B, DU145, PC-3; CQ 1-100 μM, 24 h
Text: as §1

cancer cells [8] = assay: Apoptosis (ICC for active caspase-3) of cells exposed to CQ-treated MEFs or their CM; type: cell-based, human
Description: After 24 h, the cells were subjected to immunocytochemistry (ICC) for active caspase-3 and apoptotic cells were scored under a fluorescent microscope.
After 24 h, the cells were scored for apoptosis.
A total of three independent experiments were performed; and approximately 500 cells were scored in each experiment for apoptosis under a fluorescent microscope.

LLC1 cells = assay: Apoptosis of LLC1 cells by CM from CQ-treated MEFs; type: cell-based, mouse; details: CQ 20 μM, 24 h; not with Par-4-/- MEFs
Description: After 24 h, the cells were scored for apoptosis. *P<0.0001 by the Student's t-test.

H460 or LLC1 cells = assay: Subcutaneous H460 or LLC1 tumor xenografts in nude mice; type: in vivo, mouse; details: LLC1- or H460-derived flank tumors, CQ 25 mg/kg IP once daily
UACA = UACA and NF-κB-regulated gene expression, Western blot; type: cell-based; details: for expression of UACA: 24 h
Description: as §4

Par-4 [9] = assay: Par-4 mRNA by qRT-PCR in MEFs; type: cell-based, mouse; details: CQ 25 μM, 24 h, normalized to GAPDH
Text: The data were normalized relative to a GAPDH control. (see FIG. 8C).

Par-4 [10] = assay: Par-4 secretion in Rab8b-null and Rab8b reconstituted MEFs; type: cell-based, mouse
Description: (§2) Testing was performed to determine whether the expression of Rab genes containing putative p53 binding sites in their promoter region were essential for Par-4 secretion.

Rab8b = Rab8b and Rab8a expression (protein, real-time PCR); type: cell-based
Description: as §2
The guardian of the genome, p53 binds to a consensus motif 5′-PuPuPuC4(A/T)(A/T)G7PyPyPy

p53 [11] = test system: p53
p53 [12] = details: MEFs, CQ 25 μM, 24 h
A549 lung cancer cells = details: A549 cells, 0, 2, 4 Gy, CQ 10 μM or 20 μM
[13] = test system: Mel 1617 and Mel 1617BR melanoma cancer cells; details: CQ 1 μM or 5 μM, 0 and 4 Gy
Par-4 [14] = assay: Par-4 in serum of renal cell carcinoma patients given HCQ, Western blot; type: in vivo, human
Description: Serum samples were collected from renal cell carcinoma patients who were given safe oral doses (400 mg daily for 2-weeks) of HCQ pre-operatively at the University of Pittsburgh, as part of a clinical trial in 2010-2011. Pre-HCQ treatment and post-HCQ treatment serum samples were collected and frozen. In 2013-2014, they were processed by Western blot analysis.
(§3) Aliquots of pre-HCQ or post-HCQ treatment serum samples from the patient were transferred to cancer cell cultures (20% final concentration). After 24 h, the cells were scored for apoptosis by ICC for active caspase-3. Fetal bovine serum (FBS, 10%) was used as an additional control. An asterisk (*) indicates statistical significance (P<0.001) by the Student's t-test. […] Importantly, apoptosis of cancer cells by post-treatment serum from the patient was neutralized by the Par-4 antibody (P) or GRP78 antibody (G), but not by control antibody (C) (FIG. 2E).

cancer cells [15] = assay: Ex vivo apoptosis of cancer cells by post-HCQ patient serum; type: cell-based, human; details: PC-3, H460, HOP92, H1299; 20% serum, 24 h; relative to pre-HCQ serum
Description: as §3

Par-4 [16] = assay: Par-4 secretion from MEFs treated with chloroquine, curcumin, ibuprofen or combinations; type: cell-based, mouse; details: 24 h
Description: To determine whether curcumin or ibuprofen enhanced the secretion of Par-4 in cells treated with chloroquine, MEFs were treated with chloroquine (25 μM), curcumin (5 μM and 10 μM) or ibuprofen (500 μM or 750 μM) or combinations of chloroquine and curcumin or ibuprofen for 24 hours at 37° C.
as §1, with “lysates,” for “lysates”

CN(C)c1ccc2cc(-c3ccccc3F)c(N)nc2c1 [Arylquin-1]
Par-4 secretion (Par-4 [1]): robust induction of Par-4 secretion | secretion of Par-4 from normal cells in mice (Par-4 [2]): can increase secretion of Par-4

C[C@H]1CCC/C=C/[C@@H]2C[C@H](O)C[C@H]2[C@H](O)/C=C/C(=O)O1 [BFA]
entry of Par-4 into Rab8b vesicles (Par-4 [3]; CQ-treated cells plus BFA): prevented Par-4 from entering the Rab8b vesicles | effect on CQ-induced Par-4 expression (Par-4 [4]): CQ-induced Par-4 expression was inhibited

CCN(CC)CCCC(C)Nc1ccnc2cc(Cl)ccc12 (stereo not drawn) [CQ, chloroquine diphosphate]
secretion of Par-4 in the CM (Par-4 [5]): dose-dependent secretion of Par-4 | secretion of Par-4 in the CM (Par-4 [6]): dose-dependent secretion of Par-4 | Par-4 secretion (Par-4 [7]): neither induced Par-4 secretion | apoptosis of Par-4-resistant cancer cells with CQ-treated Par-4+/+ MEFs (cancer cells [8]; DU145, A549 cells (internal control), CQ 20 μM): resistant to apoptosis | apoptosis of cancer cells co-cultured with CQ-treated Par-4+/+ MEFs (cancer cells [8]; PC-3, H460, H1299, HOP92, KP7B cells, CQ 20 μM, not with Par-4-/- MEFs): sensitive to apoptosis | cancer cell apoptosis by CM of CQ-treated Par-4+/+ MEFs (cancer cells [8]; inhibited by Par-4 antibody or GRP78 antibody): Cancer cell apoptosis was also induced | apoptosis of normal cells co-cultured with CQ-treated Par-4+/+ MEFs (cancer cells [8]; normal HEL cells, CQ 20 μM): not normal HEL cells | apoptosis of LLC1 cells by CM from CQ-treated Par-4+/+ MEFs (LLC1 cells): induced apoptosis of LLC1 cells | growth of subcutaneous tumor xenografts (tumor volume) (H460 or LLC1 cells): failed to inhibit the growth | expression of UACA (UACA; MEF and HEL, CQ 25 μM): inhibited the expression of UACA | UACA downregulation (UACA; cancer cells): failed to downregulate UACA | expression of UACA and NF-κB-regulated genes cIAP1 and XIAP (UACA; p53-dependent, wild type vs p53-/- MEFs, CQ 25 μM): inhibited the expression of UACA and NF-κB-regulated genes cIAP1 and XIAP | expression of UACA (UACA; p53 null MEFs, CQ 25 μM): not p53 null MEFs | Par-4 RNA level (Par-4 [9]): did not induce Par-4 at the RNA level | induction of Par-4 secretion (Par-4 [10]; Rab8b-null MEF cells (not Rab8a-null MEF cells)): failed to show induction of Par-4 secretion | Par-4 secretion (Par-4 [10]; Rab8b-null MEFs transfected with mouse Rab8b expression construct): induced Par-4 secretion in Rab8b reconstituted cells | Rab8b induction (Rab8b; cancer cells): not in cancer cells | Rab8b induction (Rab8b; normal human cells): induced Rab8b in normal human cells | Rab8b protein levels (Rab8b; p53 wild type cells): enhanced Rab8b protein levels | Rab8b mRNA (Rab8b; quantitative real-time PCR): induced Rab8b mRNA in a p53-dependent manner | Rab8a expression (Rab8b; wild type MEFs): not Rab8a expression | Rab8b expression (Rab8b; wild type MEFs): induced Rab8b expression | co-localization of Par-4 with Rab8b containing vesicles (Par-4 [3]; relative to vehicle): increase in the co-localization | p53-responsive genes p21 and PIG3 (p53 [11]; MEFs and normal mouse lung tissues): upregulation of p53-responsive genes p21 and PIG3 | p53 induction (p53 [11]; cancer cells): neither induced p53 | p53-dependent transcription (p53 [12]): increased p53-dependent transcription | inhibition of growth and proliferation, radiation plus CQ (A549 lung cancer cells): greater than additive effect | inhibition of growth and proliferation, CQ plus ionizing radiation [13]: greater than additive effect

CCN(CCO)CCCC(C)Nc1ccnc2cc(Cl)ccc12 (stereo not drawn) [HCQ, hydroxychloroquine]
induction of Par-4 in patient serum following HCQ treatment (Par-4 [14]; one renal cell carcinoma patient, HCQ 400 mg daily for 2 weeks): ~3 fold | Par-4 levels in patient serum (Par-4 [14]; renal cell carcinoma patients, HCQ 400 mg daily oral for 2 weeks, post vs pre treatment): elevated levels of Par-4 relative to pre-treatment levels | ex vivo apoptosis of cancer cells with post-HCQ treatment serum (cancer cells [15]): underwent apoptosis

COc1ccc(C2=N[C@@H](c3ccc(Cl)cc3)[C@@H](c3ccc(Cl)cc3)N2C(=O)N2CCNC(=O)C2)c(OC(C)C)c1 [Nutlin-3a]
Par-4 secretion (Par-4 [1]): induced Par-4 secretion in a p53-dependent manner | secretion of Par-4 from normal cells in mice (Par-4 [2]): can increase secretion of Par-4

O=C(Nc1cc(Cl)cc2c1[nH]c1cnccc12)c1cccnc1 [PS-1145]
apoptosis of A549 cells by CM from CQ-treated MEFs (cancer cells [8]; A549 cells pretreated with PS-1145 10 μM, 24 h): sensitized to apoptosis | secretion of Par-4 from normal cells in mice (Par-4 [2]): can increase secretion of Par-4

COc1cc(/C=C/C(=O)CC(=O)/C=C/c2ccc(O)c(OC)c2)ccc1O [curcumin]
Par-4 secretion (Par-4 [16]; curcumin alone 5 μM and 10 μM): enhances Par-4 secretion

CC(C)Cc1ccc(C(C)C(=O)O)cc1 (stereo not drawn) [ibuprofen]
secretion of Par-4 compared with chloroquine alone (Par-4 [16]; ibuprofen 750 μM with chloroquine 25 μM): significantly improves the secretion of Par-4 | production or secretion of Par-4 (Par-4 [16]; ibuprofen alone 500 μM or 750 μM): does not enhance the production or secretion of Par-4
